Laboratory results reported in patent US7462600B2, “Macrolides” (Pfizer Inc, priority 2004, dated 2008).
Converted amounts (≈) assume the structure as drawn.

Tests used:
Assay type in all cases: cell-based
[1] = tested on: Streptococcus pneumoniae 1016; experiment: MIC, microtiter broth dilution (NCCLS M100-S14), S. pneumoniae 1016 (susceptible); details: Streptococcus pneumoniae 1016
Outline: (§1)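 DMSO stocks, 40 mg/ml; trays scored for MIC following M100-S14 (NCCLS).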

[2] = tested on: Haemophilus influenzae 1218; experiment: MIC, microtiter broth dilution (NCCLS M100-S14), H. influenzae 1218 (susceptible); details: Haemophilus influenzae 1218
Outline: as §1

[3] = tested on: Streptococcus pyogenes 1079; experiment: MIC, microtiter broth dilution (NCCLS M100-S14), S. pyogenes 1079 (ermB); details: Streptococcus pyogenes 1079
Outline: as §1

[4] = tested on: Streptococcus pneumoniae 1095; details: Streptococcus pneumoniae 1095; microtiter broth dilution
Outline: as §1

[5] = tested on: Streptococcus pneumoniae 1175; details: Streptococcus pneumoniae 1175; microtiter broth dilution
Outline: as §1

CCC1OC(=O)C(C)C(=O)C(C)C(OC2OC(C)CC(N(C)C)C2O)C(C)(OC)CC(C)C(=O)C(C)C2N(C3CN(S(=O)(=O)c4c(C)n[nH]c4C)C3)C(=O)OC12C (centres unmarked) [Example 3.29, 3-descladinosyl-11,12-dideoxy-6-O-methyl-3-oxo-12,11-(oxycarbonyl-(1-(3,5-dimethyl-1H-pyrazole-4-sulfony)-azetidin-3-yl)-imino)-erythromycin A]
MIC S. pneumo. 1016 [1]: <0.06 µg/mL
MIC H. influenzae 1218 [2]: 0.25 µg/mL (≈ 0.303 µM)
MIC S. pyogenes 1079 [3]: 8 µg/mL (≈ 9.68 µM)
MIC S. pneumo. 1095 [4]: <0.06 µg/mL
MIC S. pneumo. 1175 [5]: 0.5 µg/mL (≈ 0.605 µM)

CCC1OC(=O)C(C)C(=O)C(C)C(OC2OC(C)CC(N(C)C)C2O)C(C)(OC)CC(C)C(=O)C(C)C2N(C3CN(S(=O)(=O)c4c[nH]c(=O)[nH]c4=O)C3)C(=O)OC12C (centres unmarked) [Example 3.30, 1,2,3,4-tetrahydro-2,4-dioxopyrimidine-5-sulfonyl]
MIC S. pneumo. 1016 [1]: 1 µg/mL (≈ 1.19 µM)
MIC H. influenzae 1218 [2]: 32 µg/mL (≈ 38 µM)
MIC S. pyogenes 1079 [3]: >64.00 µg/mL
MIC S. pneumo. 1095 [4]: >64.00 µg/mL
MIC S. pneumo. 1175 [5]: 32 µg/mL (≈ 38 µM)

CCC1OC(=O)C(C)C(=O)C(C)C(OC2OC(C)CC(N(C)C)C2O)C(C)(OC)CC(C)C(=O)C(C)C2N(C3CN(S(=O)(=O)c4ccc(OC)cc4OC)C3)C(=O)OC12C (centres unmarked) [Example 3.31, 3-descladinosyl-11,12-dideoxy-6-O-methyl-3-oxo-12,11-(1-(oxycarbonyl-(2,4-dimethoxybenzenesulfonyl)-azetidin-3-yl)-imino)-erythromycin A]
MIC S. pneumo. 1016 [1]: <0.06 µg/mL
MIC H. influenzae 1218 [2]: 0.5 µg/mL (≈ 0.576 µM)
MIC S. pyogenes 1079 [3]: 4 µg/mL (≈ 4.61 µM)
MIC S. pneumo. 1095 [4]: 2 µg/mL (≈ 2.3 µM)
MIC S. pneumo. 1175 [5]: 0.12 µg/mL (≈ 0.138 µM)

CCC1OC(=O)C(C)C(=O)C(C)C(OC2OC(C)CC(N(C)C)C2O)C(C)(OC)CC(C)C(=O)C(C)C2N(C3CN(S(=O)(=O)c4c(C)noc4C)C3)C(=O)OC12C (centres unmarked) [Example 3.32, 3,5-dimethylisoxazole-4-sulfonyl]
MIC S. pneumo. 1016 [1]: <0.06 µg/mL
MIC H. influenzae 1218 [2]: 2 µg/mL (≈ 2.42 µM)
MIC S. pyogenes 1079 [3]: 32 µg/mL (≈ 38.7 µM)
MIC S. pneumo. 1095 [4]: 0.5 µg/mL (≈ 0.605 µM)
MIC S. pneumo. 1175 [5]: 0.12 µg/mL (≈ 0.145 µM)

CCC1OC(=O)C(C)C(=O)C(C)C(OC2OC(C)CC(N(C)C)C2O)C(C)(OC)CC(C)C(=O)C(C)C2N(C3CN(S(=O)(=O)c4ccc(-c5ccon5)s4)C3)C(=O)OC12C (centres unmarked) [Example 3.33, 3-descladinosyl-11,12-dideoxy-6-O-methyl-3-oxo-12,11-(1-(oxycarbonyl-(5-(isoxazol-3-yl)thiophene-2-sulfonyl)-azetidin-3-yl)-imino)-erythromycin A]
MIC S. pneumo. 1016 [1]: <0.06 µg/mL
MIC H. influenzae 1218 [2]: 0.5 µg/mL (≈ 0.567 µM)
MIC S. pyogenes 1079 [3]: 8 µg/mL (≈ 9.08 µM)
MIC S. pneumo. 1095 [4]: <0.06 µg/mL
MIC S. pneumo. 1175 [5]: <0.06 µg/mL

CCC1OC(=O)C(C)C(=O)C(C)C(OC2OC(C)CC(N(C)C)C2O)C(C)(OC)CC(C)C(=O)C(C)C2N(C3CN(S(=O)(=O)c4ccc(Oc5ccccn5)cc4)C3)C(=O)OC12C (centres unmarked) [Example 3.34, 4-(pyridin-2-yloxy)benzenesulfonyl]
MIC S. pneumo. 1016 [1]: <0.06 µg/mL
MIC H. influenzae 1218 [2]: 16 µg/mL (≈ 17.8 µM)
MIC S. pyogenes 1079 [3]: 64 µg/mL (≈ 71 µM)
MIC S. pneumo. 1095 [4]: 1 µg/mL (≈ 1.11 µM)
MIC S. pneumo. 1175 [5]: 0.12 µg/mL (≈ 0.133 µM)

CCC1OC(=O)C(C)C(=O)C(C)C(OC2OC(C)CC(N(C)C)C2O)C(C)(OC)CC(C)C(=O)C(C)C2N(C3CN(S(=O)(=O)c4cccc(-c5cnco5)c4)C3)C(=O)OC12C (centres unmarked) [Example 3.35, 3-descladinosyl-11,12-dideoxy-6-O-methyl-3-oxo-12,11-(oxycarbonyl-(1-(3-(oxazol-5-yl)benzenesulfonyl)-azetidin-3-yl)-imino)-erythromycin A]
MIC S. pneumo. 1016 [1]: <0.06 µg/mL
MIC H. influenzae 1218 [2]: 0.12 µg/mL (≈ 0.137 µM)
MIC S. pyogenes 1079 [3]: 1 µg/mL (≈ 1.14 µM)
MIC S. pneumo. 1095 [4]: <0.06 µg/mL
MIC S. pneumo. 1175 [5]: <0.06 µg/mL
